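Following 48 hours of exposure in 96-well plates, responses at five concentrations were used to interpolate endpoints linearly. The concentration for full growth arrest is given as TGI.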
Tests used:
Test in all cases: NCI-60 cell line screen, 48 h
OVCAR-3 ovarian = system: OVCAR-3 ovarian
RPMI-8226 leukemia = system: RPMI-8226 leukemia
OVCAR-4 ovarian = system: OVCAR-4 ovarian
A498 renal = system: A498 renal
COLO 205 colon = system: COLO 205 colon
SK-MEL-5 melanoma = system: SK-MEL-5 melanoma
SNB-78 CNS = system: SNB-78 CNS
SK-MEL-2 melanoma = system: SK-MEL-2 melanoma
CCRF-CEM leukemia = system: CCRF-CEM leukemia
UACC-62 melanoma = system: UACC-62 melanoma
KM20L2 colon = system: KM20L2 colon
MOLT-4 leukemia = system: MOLT-4 leukemia
EKVX NSCLC = system: EKVX NSCLC
NCI-H460 lung = system: NCI-H460 lung
M14 melanoma = system: M14 melanoma
A549 NSCLC = system: A549 NSCLC
OVCAR-8 ovarian = system: OVCAR-8 ovarian
XF 498 CNS = system: XF 498 CNS
U251 CNS = system: U251 CNS
M19-MEL melanoma = system: M19-MEL melanoma
LXFL 529 NSCLC = system: LXFL 529 NSCLC
DMS 114 small cell lung = system: DMS 114 small cell lung
SK-OV-3 ovarian = system: SK-OV-3 ovarian
SN12C renal = system: SN12C renal
DLD-1 colon = system: DLD-1 colon
UACC-257 melanoma = system: UACC-257 melanoma
786-0 renal = system: 786-0 renal
SF-295 CNS = system: SF-295 CNS
HOP-62 NSCLC = system: HOP-62 NSCLC
NCI-H522 lung = system: NCI-H522 lung
SK-MEL-28 melanoma = system: SK-MEL-28 melanoma
K-562 leukemia = system: K-562 leukemia
SNB-19 CNS = system: SNB-19 CNS
HCC-2998 colon = system: HCC-2998 colon
HCT-116 colon = system: HCT-116 colon
UO-31 renal = system: UO-31 renal
ACHN renal = system: ACHN renal
SF-268 CNS = system: SF-268 CNS
CAKI-1 renal = system: CAKI-1 renal
SW-620 colon = system: SW-620 colon
SNB-75 CNS = system: SNB-75 CNS
IGROV1 ovarian = system: IGROV1 ovarian
OVCAR-5 ovarian = system: OVCAR-5 ovarian
HT29 colon = system: HT29 colon
SF-539 CNS = system: SF-539 CNS
KM12 colon = system: KM12 colon
HCT-15 colon = system: HCT-15 colon
MALME-3M melanoma = system: MALME-3M melanoma
TK-10 renal = system: TK-10 renal
NCI-H23 lung = system: NCI-H23 lung

## COc1ccc(Cc2nccc3cc(OC)c(OC)cc23)cc1
OVCAR-3 ovarian
  TGI: > 100 µM
RPMI-8226 leukemia
  TGI: > 100 µM
OVCAR-4 ovarian
  TGI: > 100 µM
A498 renal
  TGI: > 100 µM
COLO 205 colon
  TGI: > 100 µM
SK-MEL-5 melanoma
  TGI: > 100 µM
SNB-78 CNS
  TGI: > 100 µM
SK-MEL-2 melanoma
  TGI: > 100 µM
CCRF-CEM leukemia
  TGI: > 100 µM
UACC-62 melanoma
  TGI: > 100 µM
KM20L2 colon
  TGI: > 100 µM
MOLT-4 leukemia
  TGI: > 100 µM
EKVX NSCLC
  TGI: > 100 µM
NCI-H460 lung
  TGI: > 100 µM
M14 melanoma
  TGI: > 100 µM
A549 NSCLC
  TGI: > 100 µM
OVCAR-8 ovarian
  TGI: > 100 µM
XF 498 CNS
  TGI: 83.6 µM
U251 CNS
  TGI: > 100 µM
M19-MEL melanoma
  TGI: > 100 µM
LXFL 529 NSCLC
  TGI: > 100 µM
DMS 114 small cell lung
  TGI: > 100 µM
SK-OV-3 ovarian
  TGI: > 100 µM
SN12C renal
  TGI: > 100 µM
DLD-1 colon
  TGI: > 100 µM
UACC-257 melanoma
  TGI: 62.2 µM
786-0 renal
  TGI: > 100 µM
SF-295 CNS
  TGI: > 100 µM
HOP-62 NSCLC
  TGI: > 100 µM
NCI-H522 lung
  TGI: > 100 µM
SK-MEL-28 melanoma
  TGI: > 100 µM
K-562 leukemia
  TGI: > 100 µM
SNB-19 CNS
  TGI: > 100 µM
HCC-2998 colon
  TGI: > 100 µM
HCT-116 colon
  TGI: > 100 µM
UO-31 renal
  TGI: 90.8 µM
ACHN renal
  TGI: > 100 µM
SF-268 CNS
  TGI: > 100 µM
CAKI-1 renal
  TGI: > 100 µM
SW-620 colon
  TGI: > 100 µM
SNB-75 CNS
  TGI: > 100 µM
IGROV1 ovarian
  TGI: > 100 µM
OVCAR-5 ovarian
  TGI: > 100 µM
HT29 colon
  TGI: > 100 µM
SF-539 CNS
  TGI: > 100 µM
KM12 colon
  TGI: > 100 µM
HCT-15 colon
  TGI: > 100 µM
MALME-3M melanoma
  TGI: > 100 µM
TK-10 renal
  TGI: > 100 µM
NCI-H23 lung
  TGI: > 100 µM

Reference: PubChem BioAssay (NCI)
